Laboratory results taken from patent US7858738B2, “Synthetic human peptides and pharmaceutical compositions comprising them for the treatment of systemic lupus erythematosus” (Yeda Research and Development Co., Ltd., priority 2001, dated 2010).

What was measured:
Assay type in all cases: in vivo
BALB/c mice = assay: Treatment of 16/6Id-induced experimental SLE in BALB/c mice; settings: for mice with immune complex deposits in kidneys: 7 months after booster, untreated 9/10; for Anti-dsDNA O.D. (1:50), Mean ± SD: 16/6Id injected 1.1 ± 0.6; for Anti-dsDNA antibodies at a dilution of: 1:250, Mean ± SD: 16/6Id alone 1.16 ± 0.37; for Intensity of ICD In kidneys, Mean ± SD: 16/6Id alone 1.86 ± 0.38; for Anti-16/6 Id antibodies at a dilution of 1:1000, Mean ± SD: 16/6Id alone 2.55 ± 0.09; for Anti-dsDNA antibodies 1:1250, Mean ± SD: 16/6Id alone 0.47 ± 0.3; for Anti-16/6 Id antibodies 1:10000, Mean ± SD: 16/6Id alone 0.89 ± 0.1; for Intensity of ICD in kidneys, Mean ± SD: 16/6Id alone 1.6 ± 0.55
Method: Induction and treatment of experimental SLE. In order to induce experimental SLE, BALB/c mice were immunized with 1-2 μg of the human mAb 16/6Id and boosted 3 weeks later. For the prevention of experimental SLE, mice were given hCDR1 or hCDR3 (mCDR1 or revmCDR1 as control peptide in Example 12) intravenously (i.v.) or s.c. concomitant with the immunization, and were injected weekly thereafter for 5 weeks. Treatment of an established disease started three and a half months following disease induction with the 16/6Id, when clinical manifestations were already observed. In Example 12, mice received 10 weekly injections (i.v. or s.c.) of mCDR1 or revmCDR1 at a dose of 100 μg/mouse. Prevention and treatment of SLE-like disease in (NZB×NZW)F1 mice with the hCDR1 or mCDR1 peptide. For prevention of SLE, mice at the age of 2 months, before disease manifestations are observed, were injected s.c. with hCDR1 (or mCDR1 in Example 12, 250 μg/mouse) once a week for 10 weeks. To treat an established disease, mice at the age of 5-7 months were injected with hCDR1 (in Example 12, mCDR1 s.c., 250 μg/mouse) once a week for 10 weeks. Proliferative Responses. PBL were isolated from heparinized venous blood by Ficoll-Hypaque (Pharmacia) density-gradient centrifugation. All assays were performed, in triplicate, in flat-bottomed microtiter plates (Falcon, Becton Dickinson, Oxmard, Calif., USA) in which 2×10^5 PBL were cultured in enriched RPMI-1640 as described (Dayan et al., 2000). The PBL were exposed to various concentrations (0.1-40 μg/well) of the human anti-DNA 16/6Id mAb with and without the addition of the various CDR-based peptides at a concentration of at least 10-fold excess over that of the 16/6Id. Phytohemagglutinin (PHA; 2 μg/well) was used as a control for culture conditions at each experiment. The cultures were incubated in 7.5% CO2 at 37° C. for 6 days. Eighteen hours before the cells were harvested, [^3H]-thymidine (0.5μ Ci of 5 Ci/mmol) (Nuclear Research Center, Negev, Israel) was added to all cultures. Results are expressed as the mean thymidine incorporation in counts per minute (CPM) of triplicate culture±SD, or as stimulation index (S.I.; the ratio of mean CPM at the optimal concentration of the human 16/6Id to the mean CPM in the presence of medium alone). A S.I.≧2 was considered a positive response (Dayan et al., 2000). Inhibition (the ratio of mean CPM in the presence of the 16/6Id and various CDR-based peptides to the mean CPM with the 16/6Id without the CDR-based peptide) above 50% was considered positive. Induction of Cytokine Production. Mice that were immunized with the human 16/6Id mAb and either treated or not with the CDR-based peptide, were killed at different periods during or after treatment with the peptide. Splenocytes and lymph node cells (LNC) were harvested and incubated (5×10^6/ml) in the presence of the 16/6Id. Supernatants were collected after 48 and 72 h. Assessment of Cytokines in the Supernatants. Supernatants were collected 48 hours following the initiation of the cultures and stored at −70° C. Measurements of IL-2, IL-10, IFN-γ, and TNF-α were performed by ELISA by using the relevant standards, capture and detecting Abs (Pharmingen) according to the manufacturer's instructions. TGF-β was determined by an ELISA. Briefly, plates were coated with the recombinant human TGF-β1 sRIII/Fc chimera (R & D Systems Inc., Minneapolis, Minn., USA), and the second Ab used was the biotinylated anti-human TGF-β1 antibody (R & D Systems Inc.). The substrate solution used was TMB color Reagent (Helix Diagnostics, West Sacramento, Calif.), and enzyme activity was evaluated by using 570- and 630-nm filters. Detection of SLE-Associated Clinical and Pathological Manifestations. Proteinuria was measured semiquantitatively by using Combistix kit (Ames Division, Bayer Diagnostics, Newbury, U.K.). White blood cells (WBC, for leukopenia) were counted after a 10-fold dilution of heparinized blood in distilled water containing 1% acetic acid (vol/vol). […]

[1] = test system: splenocytes of (NZB×NZW)F1 mice; assay: Cytokine pattern in supernatants of splenocyte cultures of treated (NZB×NZW)F1 mice (ELISA); settings: end of treatment (10 weekly s.c. injections, 300 μg)
Method: (§1) Induction and treatment of experimental SLE. In order to induce experimental SLE, BALB/c mice were immunized with 1-2 μg of the human mAb 16/6Id and boosted 3 weeks later. For the prevention of experimental SLE, mice were given hCDR1 or hCDR3 (mCDR1 or revmCDR1 as control peptide in Example 12) intravenously (i.v.) or s.c. concomitant with the immunization, and were injected weekly thereafter for 5 weeks. Treatment of an established disease started three and a half months following disease induction with the 16/6Id, when clinical manifestations were already observed. In Example 12, mice received 10 weekly injections (i.v. or s.c.) of mCDR1 or revmCDR1 at a dose of 100 μg/mouse. Prevention and treatment of SLE-like disease in (NZB×NZW)F1 mice with the hCDR1 or mCDR1 peptide. For prevention of SLE, mice at the age of 2 months, before disease manifestations are observed, were injected s.c. with hCDR1 (or mCDR1 in Example 12, 250 μg/mouse) once a week for 10 weeks. To treat an established disease, mice at the age of 5-7 months were injected with hCDR1 (in Example 12, mCDR1 s.c., 250 μg/mouse) once a week for 10 weeks. Proliferative Responses. PBL were isolated from heparinized venous blood by Ficoll-Hypaque (Pharmacia) density-gradient centrifugation. […] Results are expressed as the mean thymidine incorporation in counts per minute (CPM) of triplicate culture±SD, or as stimulation index (S.I.; the ratio of mean CPM at the optimal concentration of the human 16/6Id to the mean CPM in the presence of medium alone). […] TGF-β was determined by an ELISA. […] The substrate solution used was TMB color Reagent (Helix Diagnostics, West Sacramento, Calif.), and enzyme activity was evaluated by using 570- and 630-nm filters. […] Proteinuria was measured semiquantitatively by using Combistix kit (Ames Division, Bayer Diagnostics, Newbury, U.K.). White blood cells (WBC, for leukopenia) were counted after a 10-fold dilution of heparinized blood in distilled water containing 1% acetic acid (vol/vol). […]

[2] = test system: lymph node cells of the BALB/c mice; assay: Cytokine production by 16/6Id-stimulated LNC of treated BALB/c mice (ELISA); settings: BALB/c mice immunized with 16/6Id, hCDR1 50 μg, LNC stimulated with 16/6Id
Method: as §1

[3] = Table 11, 200 μg/mouse for 10 weeks
[4] = Table 11, 300 μg/mouse for 10 weeks
[5] = Table 11, 400 μg/mouse for 10 weeks

Question: Which results are given for “GYYWSWIRQPPGKGEEWIG (Human) [hCDR1, 19-mer peptide based on the CDR1 of the heavy chain of the human 16/6Id mAb]”?
Answer: mice with immune complex deposits in kidneys (BALB/c mice; 100 μg/mouse): 3/10; mice with immune complex deposits in kidneys (BALB/c mice; 300 μg/mouse for 10 weeks): 2/9; Proteinuria g/l, Mean ± SD (BALB/c mice; Table 10, 100 μg, end of treatment, 16/6Id injected 0.65 ± 0.36): 0.3 ± 0.02 g/L; Anti-dsDNA O.D. (1:50), Mean ± SD (BALB/c mice; Table 10, 100 μg, end of treatment): 0.3 ± 0.2 O.D.; WBC/mm^3, Mean ± SD (BALB/c mice; Table 10, 100 μg, end of treatment, 16/6Id injected 3260 ± 920): 6090 ± 2160 /mm^3; Proteinuria g/l, Mean ± SD (BALB/c mice; Table 10, 300 μg, end of treatment, 16/6Id injected 0.65 ± 0.36): 0.34 ± 0.25 g/L; Anti-dsDNA O.D. (1:50), Mean ± SD (BALB/c mice; Table 10, 300 μg, end of treatment): 0.55 ± 0.3 O.D.; WBC/mm^3, Mean ± SD (BALB/c mice; Table 10, 300 μg, end of treatment, 16/6Id injected 3260 ± 920): 5890 ± 2660 /mm^3; Proteinuria g/l, Mean ± SD (BALB/c mice; Table 11, 200 μg/mouse for 10 weeks, 16/6Id alone 0.5 ± 0.34): 0.13 ± 0.16 g/L; Anti-dsDNA antibodies at a dilution of: 1:250, Mean ± SD (BALB/c mice; [3]): 0.69 ± 0.39; Intensity of ICD In kidneys, Mean ± SD (BALB/c mice; [3]): 0.57 ± 0.97; Anti-16/6 Id antibodies at a dilution of 1:1000, Mean ± SD (BALB/c mice; [3]): 2.7 ± 0.12; WBC/mm^3, Mean ± SD (BALB/c mice; Table 11, 200 μg/mouse for 10 weeks, 16/6Id alone 2871 ± 1205): 5625 ± 1659 /mm^3; Proteinuria g/l, Mean ± SD (BALB/c mice; Table 11, 300 μg/mouse for 10 weeks, 16/6Id alone 0.5 ± 0.34): 0.16 ± 0.16 g/L; Anti-dsDNA antibodies at a dilution of: 1:250, Mean ± SD (BALB/c mice; [4]): 0.45 ± 0.24; Intensity of ICD In kidneys, Mean ± SD (BALB/c mice; [4]): 0.75 ± 0.71; Anti-16/6 Id antibodies at a dilution of 1:1000, Mean ± SD (BALB/c mice; [4]): 2.8 ± 0.11; WBC/mm^3, Mean ± SD (BALB/c mice; Table 11, 300 μg/mouse for 10 weeks, 16/6Id alone 2871 ± 1205): 4677 ± 1508 /mm^3; Proteinuria g/l, Mean ± SD (BALB/c mice; Table 11, 400 μg/mouse for 10 weeks, 16/6Id alone 0.5 ± 0.34): 0.11 ± 0.15 g/L; Anti-dsDNA antibodies at a dilution of: 1:250, Mean ± SD (BALB/c mice; [5]): 0.8 ± 0.39; Intensity of ICD In kidneys, Mean ± SD (BALB/c mice; [5]): 0.71 ± 0.76; Anti-16/6 Id antibodies at a dilution of 1:1000, Mean ± SD (BALB/c mice; [5]): 2.75 ± 0.1; WBC/mm^3, Mean ± SD (BALB/c mice; Table 11, 400 μg/mouse for 10 weeks, 16/6Id alone 2871 ± 1205): 4012 ± 1421 /mm^3; Anti-dsDNA antibodies 1:1250, Mean ± SD (BALB/c mice; Table 12, 200 μg/mouse weekly): 0.23 ± 0.1; Proteinuria g/l, Mean ± SD (BALB/c mice; Table 12, 200 μg/mouse weekly, 16/6Id alone 0.58 ± 0.34): 0.17 ± 0.15 g/L; Anti-16/6 Id antibodies 1:10000, Mean ± SD (BALB/c mice; Table 12, 200 μg/mouse weekly): 0.96 ± 0.2; Intensity of ICD in kidneys, Mean ± SD (BALB/c mice; Table 12, 200 μg/mouse weekly): 1 ± 0.63; WBC/mm^3, Mean ± SD (BALB/c mice; Table 12, 200 μg/mouse weekly, 16/6Id alone 2800 ± 300): 4900 ± 800 /mm^3; Anti-dsDNA antibodies 1:1250, Mean ± SD (BALB/c mice; Table 12, 300 μg/mouse weekly): 0.2 ± 0.1; Proteinuria g/l, Mean ± SD (BALB/c mice; Table 12, 300 μg/mouse weekly, 16/6Id alone 0.58 ± 0.34): 0.085 ± 0.01 g/L; Anti-16/6 Id antibodies 1:10000, Mean ± SD (BALB/c mice; Table 12, 300 μg/mouse weekly): 0.93 ± 0.1; Intensity of ICD in kidneys, Mean ± SD (BALB/c mice; Table 12, 300 μg/mouse weekly): 0.5 ± 0.5; WBC/mm^3, Mean ± SD (BALB/c mice; Table 12, 300 μg/mouse weekly, 16/6Id alone 2800 ± 300): 5800 ± 300 /mm^3; INF-γ in supernatants of Con A-stimulated splenocytes ([1]; FIG. 13A): down-regulated; TGF-β in supernatants of non-stimulated splenocytes ([1]; FIG. 13C): increased secretion; IL-10 in supernatants of Con A-stimulated splenocytes ([1]; to a lesser extent, FIG. 13B): down-regulated; production of INF-γ ([2]; FIG. 3A): down-regulated; secretion of TGF-β ([2]; FIG. 3B): up-regulated; secretion of IL-10 ([2]; FIG. 3C): up-regulated
